Data published in US6630583B1, “Antibiotics and methods of using the same” (priority 1998, dated 2003).

Legend:
mutant SPSJ01 = test: Screen of library of loss of function mutants for antibiotic tolerance; format: cell-based, pneumococcus
Text: To detect genes that are part of the trigger pathway of the pneumococcal autolysin a library of loss of function mutants has been created, which was screened for antibiotic tolerance [Pearce et al., Mol. Microbiol., 9:1037-1050 (1993)]. […] It is reasonable to assume that this two component system represents the start of the pneumococcal autolytic trigger pathway, functioning as a relay station reacting to cell density signals or the binding of antibiotics to penicillin binding proteins. Similar to the enterococcal histidine kinase VanSB, the pneumococcal VncS works most likely as a kinase/phosphatase (see Example 1, above).

clinical isolate F79 = test: Lysis of tolerant clinical isolate; format: cell-based, pneumococcus; conditions: 10×MIC of penicillin and/or 0.5 mM peptide
Protocol: FIGS. 11A-11B show the effects of 10×MIC of penicillin and/or 0.5 mM of the peptide having the amino acid sequence of SEQ ID NO:2 on the lysis of clinical isolate F79 cells (FIG. 11A) and HK mutant VanS cells (FIG. 11B).
F79 is a natural isolate of pneumococcus with mutations in the HK and the ABC transporter genes as determined by SSCP (see Example 11).

HK mutant = test: Phenotypes of the mutants: lysis by penicillin, vancomycin, DOC; format: cell-based, S. pneumoniae
Protocol: (§1) Construction of mutations: Insertion duplication mutagenesis was carried out using PCR to generate gene fragments for homologous recombination proximal to the amino terminus of OrfW1, HK or RR as follows:
(§2) Phenotypes of the mutants: The mutants were assessed for various physiological functions characteristic of pneumococci. This included lysis by penicillin, vancomycin, and the detergent deoxycholate (DOC). Other capabilities tested included ability to undergo natural DNA transformation (Transform) and expression of the LytA protein as assessed by Western blot.

Orf W1 mutant = test: as above; format: cell-based, S. pneumoniae
Protocol: as §1, §2

RR mutant = test: as above; format: cell-based, S. pneumoniae
Protocol: as §1, §2

parent strain R6 = test: Effect of vancomycin treatment on viability; format: cell-based, S. pneumoniae; conditions: R6, vancomycin 10×MIC (5 μg/ml), over 4 hours
Protocol: Bacterial viability was followed for six hours.
(§3) The effect of penicillin and vancomycin treatment on the viability was determined by exposing 10 ml cultures in the early exponential phase of growth (OD620nm=0.3, corresponding 5×10^7 cfu/ml) to ten times the MIC of benzylpenicillin or vancomycin, respectively. After various times of exposure, 100 μl portions were removed, serially diluted in C+Y and in the case of penicillin supplemented with 100 units of penicillinase (Sigma), and plated on tryptic-soy agar supplemented with 3% sheep blood (v/v).

[1] = system: loss of function mutants of the ABC transporter and RR/HK; test: Tolerance of loss of function mutants; format: cell-based, S. pneumoniae; conditions: growth inhibitory concentrations
Text: As described in Example 6, using insertion duplication mutagenesis, loss of function mutations were obtained in each of the 3 open reading frames of the ABC transporter and each of the two parts of the RR/HK. […] These parallel phenotypes further implicate these topographically close genes in a common pathway.
Vancomycin is the only antibiotic that maintains efficacy against many strains of highly antibiotic resistant bacteria, such as staphylococci, enterococci and pneumococci. Escape from antibiotic activity of vancomycin has been detected in rare staphylococci and enterococci but not in pneumococci as yet. […] Infect. Dis. J., 12:196-200 (1993); Marton et al., J. Infect. Dis., 163:542-8 (1991); and Bradley et al., Pediatr. Infect. Dis., 14:1037-1041 (1995)]. […] If they created a phenotype which was corrected by exogenous peptide, they may participate in the biological activity of the peptide. For instance, the ABC transporter may transport the peptide and the HK may serve as an extracellular receptor for the peptide which then changes the behavior of the bacteria (i.e., killing) via a RR signal.

clinical isolate A144 = test: Cell viability (CFU/ml) one hour after addition; format: cell-based, pneumococcus; conditions: 10×MIC of penicillin, 1×MIC of vancomycin or 0.4 mM peptide
Text: Tolerance to penicillin occurs in bacteria that fail to trigger autolysins in response to the drug. […] This is a mechanism of resistance to these drugs and is a serious emerging medical problem. […] However, one pneumococcal strain that fails to lyse and dies slowly in response to both penicillin and vancomycin is the clinical isolate A144. This combination of traits makes A144 recalcitrant to therapy. FIG. 8 compares the activity of penicillin, vancomycin, and the peptide having the amino acid sequence of SEQ ID NO:2 against a classical sensitive strain, R6, and the tolerant strain A144. […] In contrast, strain A144 loses only 0.5 logs of viability in the same time period for all three therapies. […] Thereafter the bacteria grew more slowly than untreated controls.

vexp3 mutant = test: Effect of antibiotic treatment on viability; format: cell-based, S. pneumoniae; conditions: 10×MIC of vancomycin, in 4 hours
Protocol: Bacterial viability was followed for six hours. (Parent strain, R6 (□), vex3 mutant (◯), and vncS mutant (⋄)).
as §3

[2] = system: leucine deprived R6 cells; test: Stringent response: lysis after leucine deprivation; format: cell-based, S. pneumoniae; conditions: 10×MIC of penicillin or vancomycin, 0.2 mM P27, or combination
Protocol: P27 and the stringent response mechanism: The stringent response is believed to prevent the death pathway. To clarify the relationship of the stringent response to P27 activity, protein synthesis of R6 was inhibited by leucine deprivation and the effect of P27 was monitored (FIG. 19). […] The minimum concentration of penicillin required to cause penicillin dependent autolysis was equal to its MIC ([…]).

[3] = system: strain RNET01 (vncS over-expressed); test: Effect of vancomycin treatment on viability; format: cell-based, S. pneumoniae; conditions: RNET01, vancomycin 10×MIC (5 μg/ml), over 4 hours
Protocol: as §3
To address the question if the kinase/phosphatase VncS was indeed directly linked to the major pneumococcal autolytic pathway, VncS was overexpressed from a plasmid in a vncS deficient knockout mutant. […] To establish a possible correlation between over-expression of the vncS gene and cell death RNET01 and R6 were exposed to vancomycin.

CN[C@H](CC(C)C)C(=O)N[C@H]1C(=O)N[C@@H](CC(N)=O)C(=O)N[C@H]2C(=O)N[C@H]3C(=O)N[C@H](C(=O)N[C@H](C(=O)O)c4cc(O)cc(O)c4-c4cc3ccc4O)[C@H](O)c3ccc(c(Cl)c3)Oc3cc2cc(c3O[C@@H]2O[C@H](CO)[C@@H](O)[C@H](O)[C@H]2O[C@H]2C[C@](C)(N)[C@H](O)[C@H](C)O2)Oc2ccc(cc2Cl)[C@H]1O [vancomycin]
death in the presence of antibiotic (mutant SPSJ01): failed to die | lysis of F79 (clinical isolate F79): tolerant | Lysis by (HK mutant): tolerant | Lysis by (Orf W1 mutant): tolerant | Lysis by (RR mutant): sensitive | loss in viability (kill) (parent strain R6): 4 log | tolerance (lysis and death) [1]: exhibited tolerance | loss of viability (clinical isolate A144): 0.5 logs | kill (vexp3 mutant): less than 2 log | lysis of R6 under leucine deprivation [2]: neither the addition of 10×the MIC of penicillin or vancomycin nor the addition of 0.2 mM P27 resulted in lysis | loss in viability [3]: 1 log
